# Values joined by “and” are separate entries in the source; they are usually repeats but may differ in a detail not shown here. Equal entries are not always repeated. Where two headings read alike, the source gives them in different places.
# Key:
# [1] = system: chick chorioallantoic membrane (CAM) blood vessel branch points; experiment: Chick chorioallantoic membrane (CAM) model of angiogenesis; assay type: in vivo
# Description: In vivo neovascularization was examined by methods described previously. 9-12 Ten-day-old chick embryos were purchased from SPAFAS (Preston, Conn.) and incubated at 37° C. with 55% relative humidity. A hypodermic needle was used to make a small hole in the shell concealing the air sac, and a second hole was made on the broad side of the egg, directly over an avascular portion of the embryonic membrane that was identified by candling. A false air sac was created beneath the second hole by the application of negative pressure at the first hole, causing the CAM to separate from the shell. […] Thyroid hormone, hormone analogs, FGF2 or control solvents, and inhibitors were then applied to the disks and the disks allowed to dry. The disks were then suspended in PBS and placed on growing CAMs. […] At 24 hours, the MAPK cascade inhibitor PD 98059 was also added to CAMs topically by means of the filter disks. […] The number of vessel branch points contained in a circular region equal to the area of each filter disk were counted. […] In addition, each experiment was performed 3 times. The resulting angiogenesis index is the mean±SEM of new branch points.
# [2] = system: matrigel plug angiogenesis; experiment: Mouse matrigel model of angiogenesis (plug hemoglobin); assay type: in vivo, mice (C57BL/6NCr); conditions: for inhibition in vivo at 10 µg/plug: Mus musculus, FGF 100 ng + test substance 10 μg/plug; for inhibition in vivo at 10 µg/plug / inhibition of FGF-induced angiogenesis (in words): numbers are Tetrac analogs of Example 13
# Description: Normal male mice (C57BL/6NCr) 6-8 weeks of age and weighing ˜20 g were purchased from Taconic farm. Animals were housed 4 per cage, in controlled conditions of temperature (20-24° C.); humidity (60-70%) and 12 hrs. light/dark cycle provided with food and water ad libitum. […] Aliquots of matrigel were placed into cold polypropylene tubes to prevent the matrigel from solidifying and the angiogenesis promoter added to matrigel with or without agonist. Mice were treated daily. Matrigel was subcutaneously injected as triple injection per animal at 100 μL/animal. At day 14 post plug implant all animals were killed in CO2 chamber and matrigel plugs were collected. Plug hemoglobin content was analyzed from three implants/mice (n=6 per group) to measure angiogenesis.
# The matrigel plugs dissected from the mice were carefully stripped of any remaining peritoneum. The plugs were placed into 0.5 mL tube of ddH2O and homogenized for 5-10 min. […] Absorbance was read with a Microplate Manager ELISA reader at 540 nm. […] Hemoglobin concentration is a reflection of the number of blood vessels in the plugs.
# [3] = Gallus gallus, read-out: Mean % of stimulation (comparing to PBS)
# [4] = 0.01 uM; n = 8 per group; PBS (Control) 89.4 ± 9.3
# [5] = 0.1 uM; n = 8 per group; PBS (Control) 89.4 ± 9.3
# [6] = 10 μg/matrigel plug, numbers are T4 analogs of Example 12, n = 6-7, Control 0.3 ± 0.1
# [7] = numbers are T4 analogs of Example 12
# [8] = T4 + test substance, each 10 μg/matrigel plug, n = 25, T4 alone 1.2 ± 0.4
# [9] = 1 μM; numbers are T4 analogs of Example 12
# [10] = 1 μM; numbers are T4 analogs of Example 12; mean ± SEM, n = 8; PBS 73 ± 6
# [11] = 10 μg/matrigel plug, numbers are T4 analogs of Example 12
compound,measurement,setting,value
CC(C)[Si](OC(=O)Cc1cc(I)c(Oc2cc(I)c(OCC3CO3)c(I)c2)c(I)c1)(C(C)C)C(C)C (stereo not drawn),melting point,,120 °C
O=C(Cc1cc(I)c(Oc2cc(I)c(OCC3CO3)c(I)c2)c(I)c1)OCC1CO1 (stereo not drawn),melting point,,116 °C
"CC(C)(C)OC(=O)NC(Cc1cc(I)c(Oc2cc(I)c(OCC3CO3)c(I)c2)c(I)c1)C(=O)OCC1CO1 (stereo not drawn) (hydrate or solvate) [T4 analog 14, Oxiran-2-ylmethyl-2-(tert-butoxycarbonylamino)-3-(4-(3,5-diiodo-4-(oxiran-2-ylmethoxy)phenoxy)-3,5-diiodophenyl)propanoate]",melting point,,105 °C
"CC(C)[Si](OC(=O)C(Cc1cc(I)c(Oc2cc(I)c(OCC3CO3)c(I)c2)c(I)c1)NC(=O)OC(C)(C)C)(C(C)C)C(C)C (stereo not drawn) (hydrate or solvate) [T4 analog 15, Triisopropylsilyl-2-(tert-butoxycarbonylamino)-3-(4-(3,5-diiodo-4-(oxiran-2-ylmethoxy)phenoxy)-3,5-diiodophenyl)propanoate]",melting point,,109 °C
CC(C)(C)OC(=O)NC(Cc1cc(I)c(Oc2cc(I)c(O)c(I)c2)c(I)c1)C(=O)O (stereo not drawn) [Compound 7],change in vivo at 0.1 µM,[1]; [3],137 ± 7.5%
CC(=O)NC(Cc1cc(I)c(Oc2cc(I)c(OC(C)=O)c(I)c2)c(I)c1)C(=O)O (stereo not drawn) [Compound 9],change in vivo at 0.1 µM,[1]; Gallus gallus; read-out: Mean % of stimulation (comparing to PBS),67.1 ± 5%
O=C(O)Cc1cc(I)c(Oc2cc(I)c(OCC3CO3)c(I)c2)c(I)c1 (stereo not drawn) [Compound 9],inhibition in vivo at 10 µg/plug,[2],100 ± 12%
"O=C(O)CCc1cc(I)c(Oc2ccc(O)cc2)c(I)c1 [DITPA, 3,5-diiodothyropropionic acid]",ANGIOGENESIS INDEX,[1]; [4],133.0 ± 11.6
same,ANGIOGENESIS INDEX,[1]; [5],167.3 ± 12.7
same,ANGIOGENESIS INDEX,[1]; 0.2 mM; n = 8 per group; PBS (Control) 89.4 ± 9.3,117.9 ± 5.6
"Cc1cc(OCC(=O)O)cc(C)c1Cc1ccc(O)c(C(C)C)c1 [GC-1, 3,5-dimethyl-4-(4′-hydroxy-3′-isopropylbenzyl)-phenoxy acetic acid]",ANGIOGENESIS INDEX,[1]; [4],169.6 ± 11.6
same,ANGIOGENESIS INDEX,[1]; [5],152.7 ± 9.0
O=C(O)C(Cc1cc(I)c(Oc2cc(I)c(O)c(I)c2)c(I)c1)NC(c1ccccc1)(c1ccccc1)c1ccccc1 (stereo not drawn) [PRIAB2],Branch pts ± SEM,[1]; 0.1 μM; PBS 76.0 ± 8.5,136.0 ± 18.1
CNC(Cc1cc(I)c(Oc2cc(I)c(O)c(I)c2)c(I)c1)C(=O)O (stereo not drawn) [PRIAB6],Branch pts ± SEM,[1]; 0.1 μM; PBS 76.0 ± 8.5,136.2 ± 12.4
CCNC(Cc1cc(I)c(Oc2cc(I)c(O)c(I)c2)c(I)c1)C(=O)O (stereo not drawn) [PRIAB12],Branch pts ± SEM,[1]; 0.1 μM; PBS 76.0 ± 8.5,121.7 ± 13.6
"CC(C)(C)OC(=O)NC(Cc1cc(I)c(Oc2cc(I)c(O)c(I)c2)c(I)c1)C(=O)O (stereo not drawn) [T4 analog 7, 2-[(Tert-butoxycarbonyl)amino]-3-[4-(4-hydroxy-3,5-diiodophenoxy)-3,5-diiodophenyl]propanoic acid]",Branch pts ± SEM,[1]; 0.1 μM; PBS 65.2 ± 14.9,173 ± 9.9
"CNC(Cc1cc(I)c(Oc2cc(I)c(O)c(I)c2)c(I)c1)C(=O)[O-].O.O.[K+] (stereo not drawn) [T4 analog 10, Potassium 3-[4-(4-hydroxy-3,5-diiodophenoxy)-3,5-diiodophenyl]-2-(methylamino)propanoate dihydrate]",Mean % of stimulation (comparing to PBS),[1]; 0.1 μM; numbers are T4 analogs of Example 12,43.8 ± 6.5%
same,Mean Branch points,"[1]; 0.1 μM; numbers are T4 analogs of Example 12; mean ± SEM, n = 8; PBS 73 ± 6",105 ± 7
same,Mean stimulation of angiogenesis (%),"[2]; 10 μg/matrigel plug, numbers are T4 analogs of Example 12, dihydrate",87% and 87 ± 33%
same,Hemoglobin (mg/mL) ± SEM,[2]; [6],0.8 ± 0.2 mg/mL
"CCNC(Cc1cc(I)c(Oc2cc(I)c(O)c(I)c2)c(I)c1)C(=O)O (stereo not drawn) [T4 analog 11, 2-(Ethylamino)-3-[4-(4-hydroxy-3,5-diiodophenoxy)-3,5-diiodophenyl]propanoic acid]","effect on angiogenesis, representative illustrations FIG. 23 (in words)",[1]; [7],proangiogenesis
"CCNC(Cc1cc(I)c(Oc2cc(I)c(O)c(I)c2)c(I)c1)C(=O)OCC (stereo not drawn) [T4 analog 12, Ethyl-2-(ethylamino)-3-[4-(4-hydroxy-3,5-diiodophenoxy)-3,5-diiodophenyl]propanoate]",Mean Branch points,[1]; FGF (1.25 μg/ml) + T4 analog 12 (0.1 μM); PBS 73 ± 6,46 ± 2
same,"effect on FGF and T4 activity, CAM and matrigel assays (in words)",[1]; T4 analog of Example 12,entirely inhibiting FGF and T4 activity
same,"effect on angiogenesis, representative illustrations FIG. 23 (in words)",[1]; [7],anti-angiogenic
same,Hemoglobin (mg/mL) ± SEM,[2]; [8],0.4 ± 0.1 mg/mL
"CC(C)[Si](OC(=O)C(Cc1cc(I)c(Oc2cc(I)c(O)c(I)c2)c(I)c1)NC(=O)OC(C)(C)C)(C(C)C)C(C)C (stereo not drawn) [T4 analog 13, Triisopropylsilyl-2-(tert-butoxycarbonylamino)-3-(4-(4-hydroxy-3,5-diiodophenoxy)-3,5-diidoclophenyl)propanoate]",Mean % of stimulation (comparing to PBS),[1]; [9],4.1 ± 6.5%
same,Mean Branch points,[1]; [10],76 ± 7
same,Mean % Inhibition,"[1]; FGF (1.25 μg/ml) + test substance, 10 μg/plug per footnote; numbers are Tetrac analogs of Example 13",44 ± 13%
same,Mean Branch points,"[1]; FGF (1.25 μg/ml) + test substance, 10 μg/plug per footnote; numbers are Tetrac analogs of Example 13; n = 8; PBS 73 ± 6, FGF 130 ± 11",105 ± 7
same,Mean stimulation of angiogenesis (%),[2]; [11],0 ± 17%
same,Hemoglobin (mg/mL) ± SEM,[2]; [6],0.3 ± 0.1 mg/mL
"CC(C)(C)OC(=O)NC(Cc1cc(I)c(Oc2cc(I)c(OCC3CO3)c(I)c2)c(I)c1)C(=O)OCC1CO1 (stereo not drawn) [T4 analog 14, Oxiran-2-ylmethyl-2-(tert-butoxycarbonylamino)-3-(4-(3,5-diiodo-4-(oxiran-2-ylmethoxy)phenoxy)-3,5-diiodophenyl)propanoate]",Mean % of stimulation (comparing to PBS),[1]; [9],56.2 ± 7.5%
same,Mean Branch points,[1]; [10],114 ± 11
same,Mean stimulation of angiogenesis (%),[2]; [11],0 ± 17%
same,Hemoglobin (mg/mL) ± SEM,[2]; [6],0.3 ± 0.1 mg/mL
"CC(C)[Si](OC(=O)C(Cc1cc(I)c(Oc2cc(I)c(OCC3CO3)c(I)c2)c(I)c1)NC(=O)OC(C)(C)C)(C(C)C)C(C)C (stereo not drawn) [T4 analog 15, Triisopropylsilyl-2-(tert-butoxycarbonylamino)-3-(4-(3,5-diiodo-4-(oxiran-2-ylmethoxy)phenoxy)-3,5-diiodophenyl)propanoate]",Mean Branch points,[1]; [10],98 ± 8
same,change in vivo at 1 µM,[1]; [3],34.2 ± 7%
same,"effect on angiogenesis, representative illustrations FIG. 23 (in words)",[1]; [7],no effect
same,Mean stimulation of angiogenesis (%),[2]; [11],0 ± 17%
same,Hemoglobin (mg/mL) ± SEM,[2]; [6],0.3 ± 0.1 mg/mL
"CC(C)(C)OC(=O)Cc1cc(I)c(Oc2cc(I)c(O)c(I)c2)c(I)c1 [Tetrac analog 3, tert-Butyl-2-(4-(4-hydroxy-3,5-diiodophenoxy)-3,5-diiodophenyl)acetate]",inhibition of FGF-induced angiogenesis (in words),[2],strong
"O=C(Cc1cc(I)c(Oc2cc(I)c(O)c(I)c2)c(I)c1)NC1CCCCC1 [Tetrac analog 4, N-cyclohexyl-2-(4-(4-hydroxy-3,5-diiodophenoxy)-3,5-diiodophenyl)acetamide]",inhibition of angiogenesis in the CAM assay (in words),[1]; numbers are Tetrac analogs of Example 13,"not as strong as compounds 3, 5, 7, and 9"
same,inhibition in vivo at 10 µg/plug,[2],104 ± 12%
same,inhibition of FGF-induced angiogenesis (in words),[2],strong
"O=C(Cc1cc(I)c(Oc2cc(I)c(OCCCl)c(I)c2)c(I)c1)NC1CCCCC1 [Tetrac analog 15, 2-(4-(4-(2-chloroethoxy)-3,5-diiodophenoxy)-3,5-diiodophenyl)-N-cyclohexylacetamide]",melting point,,263 °C
"FGF2: human recombinant FGF2, basic fibroblast growth factor, standard proangiogenic agent",ANGIOGENESIS INDEX,[1]; 1 uM; n = 8 per group; PBS (Control) 89.4 ± 9.3,155 ± 9
same,Branch pts ± SEM,[1]; 1.25 μg/ml; PBS 76.0 ± 8.5,137.9 ± 7.5
same,Mean % of stimulation (comparing to PBS),[1]; FGF 1.25 μg/mL alone,178.1 ± 7.5%
same,Mean Branch points,[1]; FGF 1.25 μg/mL alone; n = 8; PBS 73 ± 6,130 ± 11
same,stimulation of branch formation,[1]; FGF2 1 μg/mL,2.2 fold
same,increase in angiogenesis,"[1]; FIG. 5, 3 experiments; concentration not given",2 fold
same,Hemoglobin (mg/mL) ± SEM,"[2]; FGF 100 ng alone, Control 0.3 ± 0.1",2.4 ± 0.4 mg/mL
tetraiodothyroacetic acid [Tetrac],Mean inhibition of angiogenesis (%),"[2]; T4 + test substance, each 10 μg/matrigel plug",89 ± 11%
same,Hemoglobin (mg/mL) ± SEM,[2]; [8],0.4 ± 0.1 mg/mL

# Source: patent US8802240B2, “Uses of formulations of thyroid hormone analogs and nanoparticulate forms thereof to increase chemosensitivity and radiosensitivity in tumor or cancer cells” (Nanopharmaceuticals LLC, priority 2011, dated 2014)
